Experimental findings from patent publication US20240124432A1, “HERBICIDAL COMPOUNDS” (SYNGENTA CROP PROTECTION AG, priority 2020, published 2024) are described below.

Holding throughout (assay type): in vivo
The subject of assay [1] is AMAPA. Description: Pre-emergence biological efficacy. Particulars: Amaranthus palmeri, 312 h, evaluated after 13 days, read-out: damage to plant (100=total damage to plant; 0=no damage to plant). How it is done:
(§1) Seeds of weeds and/or crops were sown in standard soil in pots. After cultivation for one day under controlled conditions in a glasshouse (at 24/19° C., day/night; 16 hours light), the plants were sprayed with an aqueous spray solution derived from the formulation of the technical active ingredient in a small amount of acetone and a special solvent and emulsifier mixture referred to as IF50 (11.12% Emulsogen EL360 TM+44.44% N-methylpyrrolidone+44.44% Dowanol DPM glycol ether), to create a 50g/l solution which was then diluted using 0.2% Genapol XO80 as diluent to give the desired final dose of test compound.
(§2) The test plants were then grown under controlled conditions in the glasshouse (at 24/18° C., day/night; 15 hours light; 50% humidity) and watered twice daily. After 13 days the test was evaluated (100=total damage to plant; 0=no damage to plant).

Assay [2] deals with ECHCG. Briefly: Pre-emergence biological efficacy. The conditions noted are these: Echinochloa crus-galli, 312 h, evaluated after 13 days, read-out: damage to plant (100=total damage to plant; 0=no damage to plant). The procedure: as §1, §2
The test system of assay [3] is EPHHL. Description: Pre-emergence biological efficacy. The conditions noted are these: Euphorbia heterophylla, 312 h, evaluated after 13 days, read-out: damage to plant (100=total damage to plant; 0=no damage to plant). How it is done: as §1, §2
Assay [4] deals with IPOHE. Briefly: Pre-emergence biological efficacy. The conditions noted are these: Ipomoea hederacea, 312 h, evaluated after 13 days, read-out: damage to plant (100=total damage to plant; 0=no damage to plant). The procedure: as §1, §2
Assay [5] relates to LOLPE. Description: Pre-emergence biological efficacy. The conditions noted are these: Lolium perenne, 312 h, evaluated after 13 days, read-out: damage to plant (100=total damage to plant; 0=no damage to plant). How it is done: as §1, §2
In assay [6] the test system is SETFA. Description: Pre-emergence biological efficacy. Particulars: Setaria faberi, 312 h, evaluated after 13 days, read-out: damage to plant (100=total damage to plant; 0=no damage to plant). How it is done: as §1, §2
Assay [7] concerns AMAPA. Description: Post-emergence biological efficacy. The conditions noted are these: Amaranthus palmeri, 312 h, evaluated after 13 days, read-out: damage to plant (100=total damage to plant; 0=no damage to plant). The procedure: as §1, with “14 days” for “one day”
(§3) The test plants were then grown under controlled conditions in the glasshouse (at 24/18° C., day/night; 15 hours light; 50% humidity)and watered twice daily. After 13 days the test was evaluated (100=total damage to plant; 0=no damage to plant).

Assay [8] concerns CHEAL. Description: Post-emergence biological efficacy. Particulars: Chenopodium album, 312 h, evaluated after 13 days, read-out: damage to plant (100=total damage to plant; 0=no damage to plant). How it is done:
as §1, with “14 days” for “one day”
as §3

The test system of assay [9] is DIGSA. Description: Post-emergence biological efficacy. Particulars: Digitaria sanguinalis, 312 h, evaluated after 13 days, read-out: damage to plant (100=total damage to plant; 0=no damage to plant). How it is done:
as §1, with “14 days” for “one day”
as §3

Assay [10] concerns ECHCG. Description: Post-emergence biological efficacy. Particulars: Echinochloa crus-galli, 312 h, evaluated after 13 days, read-out: damage to plant (100=total damage to plant; 0=no damage to plant). The procedure: as §1, with “14 days” for “one day”
as §3

In assay [11] the test system is ELEIN. Briefly: Post-emergence biological efficacy. Particulars: 312 h, evaluated after 13 days, read-out: damage to plant (100=total damage to plant; 0=no damage to plant). How it is done: as §1, with “14 days” for “one day”
as §3

The subject of assay [12] is EPHHL. Briefly: Post-emergence biological efficacy. Particulars: Euphorbia heterophylla, 312 h, evaluated after 13 days, read-out: damage to plant (100=total damage to plant; 0=no damage to plant). How it is done:
as §1, with “14 days” for “one day”
as §3

Assay [13] deals with IPOHE. Briefly: Post-emergence biological efficacy. Particulars: Ipomoea hederacea, 312 h, evaluated after 13 days, read-out: damage to plant (100=total damage to plant; 0=no damage to plant). How it is done: as §1, with “14 days” for “one day”
as §3

In assay [14] the test system is LOLPE. Description: Post-emergence biological efficacy. The conditions noted are these: Lolium perenne, 312 h, evaluated after 13 days, read-out: damage to plant (100=total damage to plant; 0=no damage to plant). How it is done: as §1, with “14 days” for “one day”
as §3

Assay [15] has as its system SETFA. Description: Post-emergence biological efficacy. Particulars: Setaria faberi, 312 h, evaluated after 13 days, read-out: damage to plant (100=total damage to plant; 0=no damage to plant). The procedure: as §1, with “14 days” for “one day”
as §3

As for `CCOC(=O)C1(C)CC(c2cc(-c3ncc(C(F)(F)F)cc3Cl)ccc2Cl)=NO1` (stereo not drawn) [Compound 1-99, Ethyl 3-[2-chloro-5-[3-chloro-5-(trifluoromethyl)-2-pyridyl]-phenyl]-5-methyl-4H-isoxazole-5-carboxylate], the pest or weed control at 250 g/ha worked out at 100% in [1]; 100% in assay [2]; 100% in assay [3]; 100% in assay [4]; 80% in assay [5]; 100% in assay [6]. Further, the pest or weed control at 250 g/ha in [7], in assay [8], in assay [9], in [10], in assay [11] and in [12] was 100% each time. In addition, the pest or weed control at 250 g/ha in [13], in assay [14] and in assay [15] was 100% each time.
Regarding `CCOC(=O)C1(C)CC(c2cc(-c3cc(F)cnc3Cl)c(F)cc2Cl)=NO1` (stereo not drawn) [Compound 1-475, Ethyl 3-[2-chloro-5-(2-chloro-5-fluoro-3-pyridyl)-4-fluoro-phenyl]-5-methyl-4H-isoxazole-5-carboxylate], the pest or weed control at 250 g/ha in assay [1] worked out at 0%; in [2], 0%; in assay [3], 40%; in [4] it was 20%; in assay [5], 0%; in assay [6] it was 0%. The pest or weed control at 250 g/ha in assay [7] worked out at 100%; in assay [8], 100%; in assay [9], 50%; in assay [10], 80%; in assay [11], 30%; in assay [12], 70%. The pest or weed control at 250 g/ha in assay [13] was found to be 100%; in assay [14], 10%; in assay [15], 80%.
In the case of `CCOC(=O)C1(C)CC(c2cc(-c3ncc(S(C)(=O)=O)cc3Cl)c(F)cc2Cl)=NO1` (stereo not drawn) [Compound 1-643, Ethyl 3-[2-chloro-5-(3-chloro-5-methylsulfonyl-2-pyridyl)-4-fluoro-phenyl]-5-methyl-4H-isoxazole-5-carboxylate], the pest or weed control at 250 g/ha in [1], in [2], in assay [3], in [4], in assay [5] and in assay [6] was 100% throughout. Besides, the pest or weed control at 250 g/ha in [7], in assay [8], in [9], in [10], in assay [11] and in assay [12] was 100% in each case. The pest or weed control at 250 g/ha in [13], in assay [14] and in assay [15] was 100% each time.
Regarding `CCOC(=O)C1(C)CC(c2cc(-c3cnc4c(c3)OC(F)(F)O4)ccc2C#N)=NO1` (stereo not drawn) [Compound 2-451, Ethyl 3-[2-cyano-5-(2,2-difluoro-[1,3]dioxolo[4,5-b]pyridin-6-yl)phenyl]-5-methyl-4H-isoxazole-5-carboxylate], the pest or weed control at 250 g/ha in assay [1] was 90%; in assay [2], 60%; in assay [3], 0%; in assay [4] it was 0%; in assay [5], 40%; in assay [6], 70%. Further, the pest or weed control at 250 g/ha was determined as 40% in [7]; 50% in assay [8]; 50% in [9]; 30% in [10]; 70% in assay [11]; 70% in assay [12]. Further, the pest or weed control at 250 g/ha in assay [13] turned out to be 30%; in [14] it was 20%; in [15] it was 40%.
On to `CCOC(=O)C1(C)CC(c2cc(-c3cnc(Cl)c(Cl)c3)c(F)cc2Cl)=NO1` (stereo not drawn) [Compound 1-427, Ethyl 3-[2-chloro-5-(5,6-dichloro-3-pyridyl)-4-fluoro-phenyl]-5-methyl-4H-isoxazole-5-carboxylate], for which the pest or weed control at 250 g/ha in assay [1], in assay [2], in [3], in assay [4], in assay [5] and in assay [6] was 0% in each case. Besides, the pest or weed control at 250 g/ha came out at 100% in [7]; 60% in [8]; 40% in assay [9]; 80% in [10]; 60% in [11]; 70% in [12]. Moreover, the pest or weed control at 250 g/ha amounted to 80% in assay [13], 20% in assay [14] and 100% in [15].
`CCOC(=O)C1(C)CC(c2cc(-c3cc(Cl)cnc3F)c(F)cc2Cl)=NO1` (stereo not drawn) [Compound 1-199, Ethyl 3-[2-chloro-5-(5-chloro-2-fluoro-3-pyridyl)-4-fluoro-phenyl]-5-methyl-4H-isoxazole-5-carboxylate]: the pest or weed control at 250 g/ha in [1] came out at 80%; in [2], 0%; in assay [3] it was 30%; in assay [4], 0%; in assay [5] it was 10%; in assay [6], 10%. Also, the pest or weed control at 250 g/ha in [7] was determined as 100%; in assay [8], 90%; in assay [9], 50%; in assay [10], 70%; in assay [11], 20%; in assay [12] it was 90%. Also, the pest or weed control at 250 g/ha in [13] turned out to be 100%; in assay [14], 40%; in assay [15], 60%.
In the case of `CCOC(=O)C1(C)CC(c2cc(-c3ccnc(F)c3)c(F)cc2Cl)=NO1` (stereo not drawn) [Compound 1-295, Ethyl 3-[2-chloro-4-fluoro-5-(2-fluoro-4-pyridyl)phenyl]-5-methyl-4H-isoxazole-5-carboxylate], the pest or weed control at 250 g/ha in assay [1], in [2], in [3], in [4], in [5] and in [6] was 0% in each case. The pest or weed control at 250 g/ha is 90% in [7]; 70% in assay [8]; 10% in [9]; 10% in [10]; 10% in assay [11]; 50% in [12]. Further, the pest or weed control at 250 g/ha in [13] was determined as 50%; in assay [14], 0%; in assay [15], 10%.
